Source: patent US20120207763A1, “PYRROLOPYRIMIDINE COMPOUNDS AND THEIR USES” (ASTEX THERAPEUTICS LIMITED, priority 2006, published 2012)
Values joined by “and” are separate entries in the source; they are usually repeats but may differ in a detail not shown here. Equal values may be shown once.

Assays:
Assay type in all cases: biochemical
CDK4 = CDK4 (Homo sapiens, UniProt P11802); test: CDK4 HTRF assay; conditions: Table E; read-out: CDK4 HTRF/IC50 [umol l − 1]
hCDK1/B = hCDK1/B (Homo sapiens, UniProt P06493); test: hCDK1/B assay; conditions: Table E; read-out: hCDK1/B/IC50 [umol l − 1]
hCDK1/B, sequence (P06493 whole entry): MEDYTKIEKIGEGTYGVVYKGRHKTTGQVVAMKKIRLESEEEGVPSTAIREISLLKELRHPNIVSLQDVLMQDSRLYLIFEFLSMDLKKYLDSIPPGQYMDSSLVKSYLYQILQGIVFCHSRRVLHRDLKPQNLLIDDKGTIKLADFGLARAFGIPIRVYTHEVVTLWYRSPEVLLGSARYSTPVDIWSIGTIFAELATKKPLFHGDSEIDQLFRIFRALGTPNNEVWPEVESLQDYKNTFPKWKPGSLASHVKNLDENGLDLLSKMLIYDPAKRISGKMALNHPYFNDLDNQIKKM
hCDK1/B, sequence (P14635 whole entry partner): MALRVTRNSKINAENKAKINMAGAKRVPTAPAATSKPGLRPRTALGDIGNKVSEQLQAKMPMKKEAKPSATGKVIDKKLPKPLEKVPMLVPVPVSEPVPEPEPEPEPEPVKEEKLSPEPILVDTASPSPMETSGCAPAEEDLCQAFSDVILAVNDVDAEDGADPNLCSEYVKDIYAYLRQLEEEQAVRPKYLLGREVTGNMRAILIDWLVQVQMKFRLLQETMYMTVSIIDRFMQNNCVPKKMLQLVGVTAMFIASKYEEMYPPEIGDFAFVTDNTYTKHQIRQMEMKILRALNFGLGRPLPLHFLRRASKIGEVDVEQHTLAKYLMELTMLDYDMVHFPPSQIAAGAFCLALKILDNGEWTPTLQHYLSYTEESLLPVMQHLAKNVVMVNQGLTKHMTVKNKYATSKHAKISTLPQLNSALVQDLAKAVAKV

[1] = target: CDK2/Cyclin-A kinase complex (Homo sapiens, UniProt P24941); test: CDK2 IMAP fluorescence polarization assay; conditions: Table E; read-out: CDK2cyA IMAP/IC50 [umol l − 1]
Procedure, shortened: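 Fluorescence polarization (IMAP) using purified active CDK2/Cyclin-A complex with a TAMRA-tagged Histone H1-derived peptide substrate; phosphorylated peptide bound by a metal-containing reagent raises polarization. Inhibition read as reduced fluorescence polarization signal.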

CDK4, sequence (P11802 whole entry): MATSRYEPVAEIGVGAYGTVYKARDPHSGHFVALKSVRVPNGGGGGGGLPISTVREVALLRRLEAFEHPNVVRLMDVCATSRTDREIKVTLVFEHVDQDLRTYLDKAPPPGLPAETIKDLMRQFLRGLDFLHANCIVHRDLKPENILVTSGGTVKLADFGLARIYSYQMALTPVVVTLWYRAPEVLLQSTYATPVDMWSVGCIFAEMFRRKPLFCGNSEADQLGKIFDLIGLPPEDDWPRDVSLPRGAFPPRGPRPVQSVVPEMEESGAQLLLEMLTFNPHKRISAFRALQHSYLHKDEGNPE
CDK4, sequence (P24385 whole entry partner): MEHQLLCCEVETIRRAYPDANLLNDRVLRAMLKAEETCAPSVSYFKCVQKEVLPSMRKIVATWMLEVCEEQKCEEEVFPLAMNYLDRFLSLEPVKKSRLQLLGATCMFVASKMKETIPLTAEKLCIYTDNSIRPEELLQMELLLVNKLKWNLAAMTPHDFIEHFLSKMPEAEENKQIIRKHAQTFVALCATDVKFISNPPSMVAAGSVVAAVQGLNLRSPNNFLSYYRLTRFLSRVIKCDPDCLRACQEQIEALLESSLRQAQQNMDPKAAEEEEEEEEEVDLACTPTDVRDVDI

| SMILES | IC50 (CDK4) | IC50 (hCDK1/B) [µM] | IC50 [1] [µM] |
| --- | --- | --- | --- |
| c1cc(N2CCNCC2)ccc1Nc1ncc2ccn(C3CCCCCC3)c2n1 [Example 232] | > 10 µM and < 1 µM | > 10 | – |
| CC(=O)N1CCN(c2ccc(Nc3ncc4ccn(C5CCC(C)C5)c4n3)cc2)CC1 (stereo not drawn) [Example 238] | < 1 µM | < 10 | < 10 |
| CC1CCC(n2ccc3cnc(Nc4ccc(N5CCNCC5)cc4)nc32)C1 (stereo not drawn) [Example 239] | < 1 µM | < 1 | < 10 |
| OC1CCC(n2ccc3cnc(Nc4ccc(N5CCNCC5)cc4)nc32)C1 (stereo not drawn) [Example 247] | < 1 µM | < 1 | < 1 |
| OC[C@@H]1CCC(n2ccc3cnc(Nc4ccc(N5CCNCC5)cc4)nc32)C1 (stereo partly drawn) [Example 250] | < 1 µM | < 1 | < 1 |
| Cc1cn(C2CCCC2)c2nc(Nc3ccc(N4CCNCC4)cc3)ncc12 [Example 266] | < 1 µM | < 10 | – |
| Cc1cn(C2CCCC2)c2nc(Nc3ccccc3)ncc12 [Example 277] | > 10 µM | > 10 | > 10 |
| Cc1cn(C2CCCC2)c2nc(Nc3ccc4[nH]c(=O)[nH]c4c3)ncc12 [Example 279] | < 1 µM | < 10 | < 10 |
| Cc1cn(C2CCCC2)c2nc(Nc3ccc4[nH]ncc4c3)ncc12 [Example 281] | – | < 10 | < 10 |
| Cc1cn(C2CCCC2)c2nc(Nc3ccc(N4CCCCC4)nc3)ncc12 [Example 284] | > 10 µM | > 15 | > 15 |
| Cc1cn(C2CCCC2)c2nc(Nc3ccc(CN4CCNC(=O)C4)cc3)ncc12 [Example 290] | < 1 µM | < 10 | < 10 |
| Cc1cn(C2CCCC2)c2nc(Nc3ccc(CCN4CCOCC4)cc3)ncc12 [Example 291] | < 1 µM | < 10 | > 10 |
| Cc1cn(C2CCCC2)c2nc(Nc3ccc(C(=O)N4CCOCC4)cc3)ncc12 [Example 292] | – | < 10 | < 10 |
| Cc1cn(C2CCCC2)c2nc(Nc3ccc(N4CCOCC4)cn3)ncc12 [Example 302] | – | > 10 | > 10 |
| Cc1cn(C2CCCC2)c2nc(Nc3nccc4ccccc34)ncc12 [Example 303] | > 10 µM | > 10 | > 10 |
| Cc1cn(C2CCCC2)c2nc(Nc3ccncn3)ncc12 [Example 304] | > 10 µM | > 10 | > 10 |
| Cc1cn(C2CCCC2)c2nc(Nc3ccc(N4CCOCC4)cc3)ncc12 [Example 305] | > 10 µM | < 10 | < 10 |
| Cc1cn(C2CCCC2)c2nc(NN3CCN(C)CC3)ncc12 [Example 306] | > 10 µM | > 10 | > 10 |
| Cc1cn(C2CCCC2)c2nc(Nc3ccc(N(C)C)cc3)ncc12 [Example 311] | – | > 10 | > 10 |
| Cc1cn(C2CCCC2)c2nc(Nc3ccc(-n4ccnc4)cc3)ncc12 [Example 312] | – | < 10 | < 10 |

| SMILES | IC50 (CDK4) | IC50 (hCDK1/B) [µM] | IC50 [1] [µM] |
| --- | --- | --- | --- |
| Cc1cn(C2CCCC2)c2nc(Nc3ccc(CN4CCOCC4)cc3)ncc12 [Example 313] | < 1 µM | < 10 | < 10 |
| Cc1cn(C2CCCC2)c2nc(Nc3ccc(CN4CCNCC4)cc3)ncc12 [Example 314] | < 1 µM | < 10 | < 10 |
| Cc1cn(C2CCC(O)C2)c2nc(Nc3ccc(CN4CCOCC4)cc3)ncc12 (stereo not drawn) [Example 315] | < 1 µM | < 10 | < 1 |
| Cc1cn(C2CCC(O)C2)c2nc(Nc3ccc(CN4CCNCC4)cc3)ncc12 (stereo not drawn) [Example 316] | < 1 µM | < 10 | < 1 |
| Cc1cn(-c2c[nH]cn2)c2nc(Nc3ccc(N4CCNCC4)cn3)ncc12 [Example 324] | < 1 µM | > 10 | > 10 |
| CN(C)C(=O)c1cc2cnc(Nc3ccc(N4CCNCC4)cc3)nc2n1C1CCCC1 [Example 338] | < 1 µM | < 10 | < 10 |
| CN(C)C(=O)c1cc2cnc(Nc3ccc(CN4CCNCC4)cc3)nc2n1C1CCCC1 [Example 339] | < 1 µM | > 10 | > 10 |
| CN(C)C(=O)c1cc2cnc(Nc3ccc(CN4CCOCC4)cc3)nc2n1C1CCCC1 [Example 340] | < 1 µM | < 10 | < 10 |
| CN(C)C(=O)c1cc2cnc(Nc3ccc(C4CCNCC4)cc3)nc2n1C1CCCC1 [Example 341] | < 1 µM | < 10 | > 10 |
| CCC(CC)n1c(C(=O)N(C)C)cc2cnc(Nc3ccc(CN4CCNCC4)cc3)nc21 [Example 342] | < 1 µM | < 10 | < 10 |
| CCC(CC)n1c(C(=O)NC)cc2cnc(Nc3ccc(N4CCNCC4)cc3)nc21 [Example 346] | < 1 µM | < 10 | < 10 |
| CCC(CC)n1c(C(=O)Nc2ccc(OC)cc2)cc2cnc(Nc3ccc(N4CCNCC4)cc3)nc21 [Example 347] | < 1 µM | > 10 | > 10 |
| CCC(CC)n1c(C(=O)Nc2ccc(C)cc2)cc2cnc(Nc3ccc(N4CCNCC4)cc3)nc21 [Example 348] | < 1 µM | > 15 | > 15 |
| CCC(CC)n1c(C(=O)Nc2ccc(C(C)(C)C)cc2)cc2cnc(Nc3ccc(N4CCNCC4)cc3)nc21 [Example 349] | – | > 15 | > 15 |
| CCC(CC)n1c(C(=O)Nc2cccc(C(F)(F)F)c2)cc2cnc(Nc3ccc(N4CCNCC4)cc3)nc21 [Example 350] | < 1 µM | > 10 | > 15 |
| CCC(CC)n1c(C(=O)Nc2ccccn2)cc2cnc(Nc3ccc(N4CCNCC4)cc3)nc21 [Example 351] | < 1 µM | < 10 | < 10 |
| CCC(CC)n1c(C(=O)Nc2cccnc2)cc2cnc(Nc3ccc(N4CCNCC4)cc3)nc21 [Example 352] | < 1 µM | < 10 | > 10 |
| CCC(CC)n1c(C(=O)Nc2ccncc2)cc2cnc(Nc3ccc(N4CCNCC4)cc3)nc21 [Example 353] | < 1 µM | > 15 | > 15 |
| CCC(CC)n1c(C(=O)Nc2ccc(CN3CCN(C)CC3)cc2)cc2cnc(Nc3ccc(N4CCNCC4)cc3)nc21 [Example 354] | – | > 15 | > 15 |
| CCC(CC)n1c(C(=O)Nc2cc[nH]n2)cc2cnc(Nc3ccc(N4CCNCC4)cc3)nc21 [Example 356] | < 1 µM | < 10 | < 10 |

| SMILES | IC50 (CDK4) | IC50 (hCDK1/B) [µM] | IC50 [1] [µM] |
| --- | --- | --- | --- |
| CCC(CC)n1c(C(=O)Nc2cccc(F)c2)cc2cnc(Nc3ccc(N4CCNCC4)cc3)nc21 [Example 357] | < 1 µM | < 10 | < 10 |
| CCC(CC)n1c(C(=O)Nc2cccc(C(C)(C)C)c2)cc2cnc(Nc3ccc(N4CCNCC4)cc3)nc21 [Example 358] | < 1 µM | > 15 | > 15 |
| CCC(CC)n1c(C(=O)Nc2ccc(C(F)(F)F)cc2)cc2cnc(Nc3ccc(N4CCNCC4)cc3)nc21 [Example 359] | < 1 µM | < 10 | < 10 |
| CCC(CC)n1c(CNCCc2cc3ccccc3[nH]2)cc2cnc(Nc3ccc(N4CCN(C(C)=O)CC4)cc3)nc21 [Example 368] | < 1 µM | < 10 | < 1 |
| CCC(CC)n1c(CNc2cccnc2)cc2cnc(Nc3ccc(N4CCN(C(C)=O)CC4)cc3)nc21 [Example 369] | – | < 10 | < 10 |
| CCC(CC)n1c(CNC2CCCC2)cc2cnc(Nc3ccc(N4CCN(C(C)=O)CC4)cc3)nc21 [Example 370] | – | < 10 | < 10 |
| CCC(CC)n1c(CNc2ccon2)cc2cnc(Nc3ccc(N4CCN(C(C)=O)CC4)cc3)nc21 [Example 371] | – | < 1 | < 10 |
| CCC(CC)n1c(CNc2cc(C)[nH]n2)cc2cnc(Nc3ccc(N4CCN(C(C)=O)CC4)cc3)nc21 [Example 372] | – | < 10 | < 1 |
| Cc1nnc(-c2c(C)c3cnc(Nc4ccc(N5CCNCC5)cn4)nc3n2C2CCCC2)o1 [Example 386, [7-Cyclopentyl-5-methyl-6-(5-methyl-[1,3,4]oxadiazol-2-yl)-7H-pyrrolo[2,3d]pyrimidin-2-yl]-(5-piperazin-1-yl-pyridin-2-yl)-amine] | < 1 µM | < 10 | < 10 |
| CC(=O)c1c(C)c2cnc(Nc3ccc(N4CCNCC4)cn3)nc2n1C1CCCCCC1 [Example 389] | < 1 µM | > 10 | < 10 |
| Cc1c(C(N)=O)n(C2CCCC2)c2nc(Nc3ccc(N4CCNCC4)cn3)ncc12 [Example 391] | < 1 µM | > 10 | > 10 |
| Cc1c(C(=O)N(C)C)n(C2CCCC2)c2nc(Nc3ccc(N4CCNCC4)cn3)ncc12 [Example 392] | – | > 10 | < 10 |
| Cc1c(C#N)n(C2CCCC2)c2nc(Nc3ccc(N4CCNCC4)cn3)ncc12 [Example 393] | < 1 µM | < 10 | < 10 |
| Cc1c(C#N)n(C2CCCC2)c2nc(Nc3ccc(N4CCC(N(C)C)CC4)cn3)ncc12 [Example 394] | < 1 µM | > 15 | > 10 |
| CCC(CC)n1c(CNCc2ccco2)cc2cnc(Nc3ccc(N4CCN(C(C)=O)CC4)cc3)nc21 [Example 449] | – | < 10 | < 10 |
| Cc1cn(C2CCCC2)c2nc(Nc3ccc(CN4CCN(C(=O)OC(C)(C)C)CC4)cc3)ncc12 [Example 462] | – | > 15 | > 15 |
| Cc1cn(C2CCCC2)c2nc(Nc3ccc(CO)cc3)ncc12 [Example 466] | – | < 10 | < 10 |
| CN(C)C(=O)c1cc2cnc(NCc3ccc(N4CCNCC4)cc3)nc2n1C1CCCC1 [Example 467] | – | > 15 | > 15 |
